Measurements published in the supplement of paper PMC10307832.

Columns and labels:
Experiment in all cases: relative viability (nuclei count vs DMSO), 5 days (fraction); higher = more cells survive
[1] = compound: CC1=C(C(=O)N2C=CSC2=N1)CCN3CCC(=C(C4=CC=CC=C4)C5=CC=C(C=C5)F)CC3 + NC(=O)Nc1cc(-c2cccc(F)c2)sc1C(=O)N[C@H]1CCCNC1 [AZD7762] (partner 0.2 µM)
In short: (§1)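 Lung cancer cell lines in 1536-well plates got either a single drug or a fixed anchor-drug dose together with five library-drug doses (not always all listed) in √10 steps, by pin tool, on the day after seeding. Nuclei were counted after 5 days, and relative viability is the treated-to-vehicle ratio of nuclei counts. Values are medians of duplicate plates.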

[2] = compound: CC1=C(C(=O)N2C=CSC2=N1)CCN3CCC(=C(C4=CC=CC=C4)C5=CC=C(C=C5)F)CC3 + Nc1ncn([C@H]2C[C@H](O)[C@@H](CO)O2)c(=O)n1 [Decitabine] (partner 2 µM)
In short: as §1

[3] = compound: CC1=C(C(=O)N2C=CSC2=N1)CCN3CCC(=C(C4=CC=CC=C4)C5=CC=C(C=C5)F)CC3 + CS(=O)(=O)CCNCc1ccc(-c2ccc3ncnc(Nc4ccc(OCc5cccc(F)c5)c(Cl)c4)c3c2)o1 [Lapatinib] (partner 2 µM)
In short: as §1

[4] = compound: CC1=C(C(=O)N2C=CSC2=N1)CCN3CCC(=C(C4=CC=CC=C4)C5=CC=C(C=C5)F)CC3 + O=C(c1cc(Cc2n[nH]c(=O)c3ccccc23)ccc1F)N1CCN(C(=O)C2CC2)CC1 [Olaparib] (partner 8 µM)
In short: as §1

| Cell Line | relative viability ([1]; first compound 0.08 µM) | relative viability ([1]; first compound 0.253 µM) | relative viability ([1]; first compound 0.8 µM) | relative viability ([1]; first compound 2.53 µM) | relative viability ([1]; first compound 8 µM) | relative viability ([2]; first compound 0.08 µM) | relative viability ([2]; first compound 0.253 µM) | relative viability ([2]; first compound 0.8 µM) | relative viability ([2]; first compound 2.53 µM) | relative viability ([2]; first compound 8 µM) | relative viability ([3]; first compound 0.253 µM) | relative viability ([3]; first compound 0.8 µM) | relative viability ([3]; first compound 2.53 µM) | relative viability ([3]; first compound 8 µM) | relative viability ([4]; first compound 0.08 µM) | relative viability ([4]; first compound 0.253 µM) | relative viability ([4]; first compound 0.8 µM) | relative viability ([4]; first compound 2.53 µM) | relative viability ([4]; first compound 8 µM) | relative viability ([3]; first compound 0.08 µM) |
| --- | --- | --- | --- | --- | --- | --- | --- | --- | --- | --- | --- | --- | --- | --- | --- | --- | --- | --- | --- | --- |
| HCC-366 | 0.302 | 0.317 | 0.25 | 0.23 | 0.211 | 0.389 | 0.318 | 0.324 | 0.394 | 0.243 | 0.778 | 1.02 | 1.71 | 0.412 | 0.331 | 0.287 | 0.469 | 0.464 | 0.226 |  |
| HCC-827 | 0.16 | 0.214 | 0.236 | 0.224 | 0.209 | 0.285 | 0.335 | 0.308 | 0.33 | 0.322 | 0.189 | 0.201 | 0.196 | 0.188 | 0.655 | 0.626 | 0.718 | 0.637 | 0.667 | 0.198 |
| HOP-62 | 0.445 | 0.51 | 0.522 | 0.534 | 0.323 | 0.2 | 0.193 | 0.204 | 0.213 | 0.162 | 1.03 | 1.2 | 0.862 | 0.482 | 0.388 | 0.461 | 0.445 | 0.434 | 0.352 | 0.785 |
| IA-LM |  |  |  |  |  |  |  |  |  |  | 0.585 | 0.789 | 0.853 | 0.405 | 0.93 | 0.926 | 0.848 | 0.709 | 0.687 |  |
| LCLC-103H | 0.923 | 0.766 | 0.781 | 0.822 | 0.655 | 0.685 | 0.702 | 0.69 | 0.826 | 0.646 |  |  |  |  | 0.876 | 0.71 | 0.859 | 0.735 | 0.667 |  |
| NCI-H441 | 0.859 | 1.12 | 1.23 | 1.07 | 0.671 | 0.263 | 0.255 | 0.242 | 0.247 | 0.239 |  |  |  |  | 0.5 | 0.502 | 0.515 | 0.642 | 0.367 |  |
| NCI-H520 |  |  |  |  |  | 0.471 | 0.565 | 0.519 | 0.515 | 0.445 | 0.693 | 0.942 | 1.1 | 0.684 | 0.358 | 0.342 | 0.341 | 0.31 | 0.306 | 0.78 |
| NCI-H522 | 0.927 | 0.874 | 0.789 | 0.721 | 0.747 | 0.729 | 0.629 | 0.793 | 0.592 | 0.686 |  |  |  |  | 0.622 | 0.732 | 0.647 | 0.664 | 0.513 |  |
| NCI-H661 |  |  |  |  |  | 0.528 | 0.623 | 0.55 | 0.528 | 0.387 | 0.469 | 0.538 | 0.39 | 0.355 | 0.797 | 0.73 | 0.8 | 0.783 | 0.463 | 0.428 |
| NCI-H1299 |  |  |  |  |  |  |  |  |  |  | 0.88 | 0.97 | 1.03 | 0.767 | 1.04 | 1.01 | 0.957 | 0.977 | 0.803 | 1.04 |
| NCI-H1563 |  |  |  |  |  |  |  |  |  |  | 0.845 | 1 | 1.01 | 0.857 |  |  |  |  |  | 0.91 |
| NCI-H1648 | 0.722 | 0.628 | 0.727 | 0.667 | 0.443 | 0.528 | 0.587 | 0.513 | 0.456 | 0.453 |  |  |  |  | 1.14 | 0.981 | 1.28 | 0.787 | 0.359 |  |
| NCI-H1650 |  |  |  |  |  | 0.372 | 0.485 | 0.505 | 0.435 | 0.329 | 0.891 | 0.709 | 0.925 | 0.579 | 0.782 | 0.838 | 0.862 | 0.819 | 0.605 | 0.685 |
| NCI-H1703 | 0.14 | 0.139 | 0.194 | 0.117 | 0.132 |  |  |  |  |  | 0.717 | 1.23 | 1.69 | 0.62 | 0.385 | 0.334 | 0.427 | 0.577 | 0.432 | 1.57 |
| NCI-H2009 |  |  |  |  |  | 0.396 | 0.393 | 0.396 | 0.396 | 0.369 | 0.903 | 0.785 | 0.946 | 0.786 | 0.716 | 0.706 | 0.654 | 0.721 | 0.581 | 1.01 |
| NCI-H2023 |  |  |  |  |  | 0.257 | 0.248 | 0.217 | 0.24 | 0.156 | 0.796 | 0.783 | 0.966 | 0.9 | 0.563 | 0.454 | 0.509 | 0.607 | 0.394 | 0.876 |
| NCI-H2228 |  |  |  |  |  |  |  |  |  |  | 0.974 | 1.14 | 0.99 | 0.635 | 0.591 | 0.701 | 0.723 | 0.728 | 0.347 | 1.04 |
| NCI-H2342 | 0.382 | 0.516 | 0.436 | 0.566 | 0.433 | 0.547 | 0.809 | 0.697 | 0.834 | 0.645 |  |  |  |  | 0.38 | 0.44 | 0.435 | 0.426 | 0.43 |  |
| SK-LU-1 |  |  |  |  |  | 0.593 | 0.555 | 0.709 | 0.615 | 0.535 | 0.918 | 1.05 | 1.07 | 0.62 | 0.442 | 0.45 | 0.459 | 0.429 | 0.402 | 0.675 |
| SK-MES-1 |  |  |  |  |  | 0.572 | 0.391 | 0.375 | 0.461 | 0.353 | 0.537 | 0.478 | 0.437 | 0.481 | 0.961 | 0.583 | 0.725 | 0.827 | 0.64 | 0.453 |
| SW 900 | 0.517 | 0.666 | 0.656 | 0.737 | 0.367 | 0.477 | 0.437 | 0.407 | 0.45 | 0.496 |  |  |  |  | 0.896 | 0.878 | 0.841 | 0.848 | 0.706 |  |
| SW 1573 |  |  |  |  |  | 0.453 | 0.524 | 0.505 | 0.633 | 0.447 | 1.2 | 1.05 | 1.27 | 1.06 | 0.502 | 0.323 | 0.465 | 0.625 | 0.357 | 1.26 |
| UMC-11 |  |  |  |  |  | 0.591 | 0.714 | 0.58 | 0.633 | 0.53 | 0.745 | 0.86 | 1.21 | 0.821 | 0.44 |  | 1.05 | 0.307 | 0.342 | 0.999 |
